{
  "source": "paper PMC12778052",
  "about": "(Science Advances, 2026)",
  "key": {"[1]": {"test_system": "T24 cells", "experiment": "In vitro binding of [^68Ga]AJ647 to T24 cells", "type": "cell-based", "details": "T24 (low Nectin-4); 1 × 10^6 cells, ~1 μCi, 30 min, 4°C; means ± SD, n = 4", "description": "(§1) In vitro binding of [^68Ga]AJ647 to T24, SCaBER, RT112, UC9, UC14, and HT1376 cells was determined by incubating 1 × 10^6 cells with ~1 μCi of [^68Ga]AJ647 for 30 min at 4°C. After incubation, cells were washed three times with ice-cold PBS containing 0.1% Tween 20 and counted on an automated gamma counter. All cell radioactivity uptake studies were performed in quadruplicate for each cell line and repeated three times."}, "[2]": {"test_system": "UC14 cells", "experiment": "In vitro binding of [^68Ga]AJ647 to UC14 cells", "type": "cell-based", "details": "1 × 10^6 cells, ~1 μCi, 30 min, 4°C, means ± SD, n = 4", "description": "as §1"}, "[3]": {"test_system": "UC9 cells", "experiment": "In vitro binding of [^68Ga]AJ647 to UC9 cells", "type": "cell-based", "details": "1 × 10^6 cells, ~1 μCi, 30 min, 4°C, means ± SD, n = 4", "description": "as §1"}, "[4]": {"test_system": "SCaBER cells", "experiment": "In vitro binding of [^68Ga]AJ647 to SCaBER cells", "type": "cell-based", "details": "1 × 10^6 cells, ~1 μCi, 30 min, 4°C, means ± SD, n = 4", "description": "as §1"}, "[5]": {"details": "1.25 mg/kg dose level; cited from earlier work", "from_the_text": "Focusing on EV, an FDA-approved ADC targeting Nectin-4 ([11]), we aimed to test whether PET-measured target engagement (TE) could better define the relationships among dose, exposure, and therapeutic response. […] Adjustments in the dosage were more ..."}, "[6]": {"test_system": "HT1376 tumors", "experiment": "Pilot in vivo EV effect on tumor uptake of [^68Ga]AJ647, HT1376 tumors", "design": "species or system NSG mice", "details": "EV 20 mg/kg i.v. single dose, 24 hours before tracer, ex vivo 60 min, n = 5", "description": "Male NSG mice were implanted subcutaneously with HT1376 and SCaBER cells (4 million each) on the right and left rostral ends, respectively. On day 25 after cell inoculation (average tumor volume, 200 ± 35 mm^3), mice were randomized and treated with a single dose of either saline or EV ADC (20 mg/kg) injected intravenously (volume not exceeding 300 μl) or with 200 μl of saline (n = 7 per group). Twenty-four hours following the EV dose, [^68Ga]AJ647 PET scans (n = 2 per group) were acquired, and ex vivo biodistribution (n = 5 per group) was performed using the protocols mentioned above."}},
  "data": [
    {"compound": "CSCC[C@@H]1NC(=O)[C@@H]2CSCCC(=O)N3CN(CN(C3)C(=O)CCSC[C@H](NC(=O)CCOCCOCCOCCOCCOCCOCCOCCOCCOCCOCCOCCOCCNC(=O)CN3CCN(CC(=O)O)CCN(CC(=O)O)CC3)C(=O)N3CCC[C@H]3C(=O)N[C@@H](Cc3cccc4ccccc34)C(=O)N[C@@H](CC(=O)O)C(=O)N2)C(=O)CCSC[C@@H](C(N)=O)NC(=O)[C@H](Cc2c[nH]c3ccccc23)NC(=O)[C@@H]2C[C@@H](O)CN2C(=O)[C@@H]2CCCN2C(=O)[C@H]([C@@H](C)O)NC(=O)[C@H](CO)NC(=O)[C@H](Cc2c[nH]c3ccccc23)NC(=O)[C@@H](CC(=O)O)NC(=O)[C@H](CCCCNC(=N)N)NC1=O", "note": "[[^68Ga]AJ647, metal not drawn]", "values": [
      {"measurement": "[^68Ga]AJ647 uptake", "setting": "[1]", "value": "0.2 ± 0.11", "unit": "%IA"},
      {"measurement": "[^68Ga]AJ647 uptake", "setting": "[2]", "value": "3.0 ± 0.42", "unit": "%IA"},
      {"measurement": "[^68Ga]AJ647 uptake", "setting": "[3]", "value": "2.2 ± 0.48", "unit": "%IA"},
      {"measurement": "[^68Ga]AJ647 uptake", "setting": "[4]", "value": "1.6 ± 0.13", "unit": "%IA"}
    ]},
    {"compound": "enfortumab vedotin [EV]", "values": [
      {"measurement": "patients needing dosage adjustments", "setting": "[5]", "value": "more than 32%"},
      {"measurement": "reduction in [^68Ga]AJ647 tumor uptake vs saline controls", "setting": "[6]", "value": 84, "unit": "%"}
    ]}
  ]
}
